Two compounds from a compilation of properties of binary mixtures (doi:10.1016/j.molliq.2020.113163) can be followed below.

Molecules are shown by their SMILES.

The nature of the series: xn = mol fraction of the nth substance listed. Particulars: 101 kPa, x1 = 0.8.

For `C1CCC2=NCCCN2CC1` + O=S(=O)([N-]S(=O)(=O)C(F)(F)F)C(F)(F)F.[Li+], the electrical conductivity reads like this: (338.15 K) 0.0047 S/m; (358.15 K) 0.0256 S/m; (368.15 K) 0.0438 S/m. Further, the viscosity (commonly the internal friction of a fluid under shear) is, setting by setting: (338.15 K) 977 mPa·s; (358.15 K) 160.9 mPa·s; (368.15 K) 82.4 mPa·s.

In the case of `C1CN=C2CCCN2C1` + O=S(=O)([N-]S(=O)(=O)C(F)(F)F)C(F)(F)F.[Li+], the electrical conductivity amounted to 0.0252 S/m (328.15 K), 0.0633 S/m (348.15 K) and 0.0966 S/m (358.15 K). The viscosity turned out to be 566 mPa·s (328.15 K), 116.3 mPa·s (348.15 K) and 63.5 mPa·s (358.15 K).
